In ChEMBL document CHEMBL5465560, “Selectivity Literature for EUbOPEN Chemogenomic Library” (2024):
Blank lines part the entries; values can stand above or below the compound they belong to.

Tests used:
[1] = target: T1, Aurora kinase A (Homo sapiens) (UniProt O14965); assay: Selectivity interaction (Kinase panel (Z-LYTE Assay)) EUB0001632a STK6; conditions: at 10 µM
T1 sequence (whole entry): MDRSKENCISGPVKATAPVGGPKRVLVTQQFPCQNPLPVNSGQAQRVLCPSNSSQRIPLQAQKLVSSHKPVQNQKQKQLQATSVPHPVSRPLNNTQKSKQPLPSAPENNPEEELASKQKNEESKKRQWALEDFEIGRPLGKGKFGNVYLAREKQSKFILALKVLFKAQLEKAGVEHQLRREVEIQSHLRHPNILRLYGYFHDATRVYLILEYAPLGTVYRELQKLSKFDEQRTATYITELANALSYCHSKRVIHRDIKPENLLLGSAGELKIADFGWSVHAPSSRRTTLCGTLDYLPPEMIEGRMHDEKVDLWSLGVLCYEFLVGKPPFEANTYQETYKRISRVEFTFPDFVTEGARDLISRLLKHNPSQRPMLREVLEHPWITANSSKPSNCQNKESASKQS

[2] = target: T2, Protein kinase C epsilon type (Homo sapiens) (UniProt Q02156); assay: Selectivity interaction (Upstate Kinase Profiler service (Millipore)) EUB0000056c PRKCE; conditions: at 1 µM
T2 sequence (whole entry): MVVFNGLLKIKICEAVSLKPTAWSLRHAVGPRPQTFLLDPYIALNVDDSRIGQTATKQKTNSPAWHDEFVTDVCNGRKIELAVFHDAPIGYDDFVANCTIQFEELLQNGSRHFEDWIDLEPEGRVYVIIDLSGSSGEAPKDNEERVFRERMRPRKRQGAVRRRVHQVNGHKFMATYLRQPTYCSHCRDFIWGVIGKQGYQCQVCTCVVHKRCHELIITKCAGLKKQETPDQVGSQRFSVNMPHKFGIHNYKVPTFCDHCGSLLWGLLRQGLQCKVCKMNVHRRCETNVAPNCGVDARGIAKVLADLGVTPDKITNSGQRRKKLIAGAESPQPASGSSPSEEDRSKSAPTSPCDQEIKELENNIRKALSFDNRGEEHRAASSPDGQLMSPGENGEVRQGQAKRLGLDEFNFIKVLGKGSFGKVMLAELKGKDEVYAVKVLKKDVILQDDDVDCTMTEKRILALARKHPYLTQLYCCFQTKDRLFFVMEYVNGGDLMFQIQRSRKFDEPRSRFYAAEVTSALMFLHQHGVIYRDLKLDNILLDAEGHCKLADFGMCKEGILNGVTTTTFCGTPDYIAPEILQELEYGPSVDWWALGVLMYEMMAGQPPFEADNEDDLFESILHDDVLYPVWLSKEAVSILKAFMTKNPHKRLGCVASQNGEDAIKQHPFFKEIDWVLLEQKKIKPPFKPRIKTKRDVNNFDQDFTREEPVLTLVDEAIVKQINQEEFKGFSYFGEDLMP

[3] = target: T3, TGF-beta receptor type-1 (Homo sapiens) (UniProt P36897); assay: Selectivity interaction (KinomeScan (DiscoverX)) EUB0000655a TGFBR1; conditions: at 10 µM
T3 sequence (whole entry): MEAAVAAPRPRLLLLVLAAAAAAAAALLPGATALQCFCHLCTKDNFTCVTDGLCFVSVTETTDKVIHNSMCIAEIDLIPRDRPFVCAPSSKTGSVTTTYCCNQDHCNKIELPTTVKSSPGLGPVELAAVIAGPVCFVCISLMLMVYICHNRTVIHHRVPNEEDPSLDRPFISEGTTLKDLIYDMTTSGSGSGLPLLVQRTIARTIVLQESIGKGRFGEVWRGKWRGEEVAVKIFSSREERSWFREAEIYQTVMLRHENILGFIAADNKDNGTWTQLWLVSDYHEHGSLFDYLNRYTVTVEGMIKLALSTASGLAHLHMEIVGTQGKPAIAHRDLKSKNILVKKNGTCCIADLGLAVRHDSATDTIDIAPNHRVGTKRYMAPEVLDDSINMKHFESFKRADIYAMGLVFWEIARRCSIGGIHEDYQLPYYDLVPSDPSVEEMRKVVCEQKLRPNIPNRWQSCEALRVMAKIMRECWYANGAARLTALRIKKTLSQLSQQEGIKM

[4] = target: T4, Phosphatidylinositol 5-phosphate 4-kinase type-2 gamma (Homo sapiens) (UniProt Q8TBX8); assay: Selectivity interaction (Kinase panel (KiNativ target engagement assay in Jurkat cells)) EUB0001635a PIP4K2C; assay type: cell-based; conditions: Selectivity number of off-targets 0.0, Selectivity number of targets 233.0, Source Knowledge https://www.sciencedirect.com/science/article/pii/S2451945619300674?via%3Dihub, at 1 µM
T4 sequence (whole entry): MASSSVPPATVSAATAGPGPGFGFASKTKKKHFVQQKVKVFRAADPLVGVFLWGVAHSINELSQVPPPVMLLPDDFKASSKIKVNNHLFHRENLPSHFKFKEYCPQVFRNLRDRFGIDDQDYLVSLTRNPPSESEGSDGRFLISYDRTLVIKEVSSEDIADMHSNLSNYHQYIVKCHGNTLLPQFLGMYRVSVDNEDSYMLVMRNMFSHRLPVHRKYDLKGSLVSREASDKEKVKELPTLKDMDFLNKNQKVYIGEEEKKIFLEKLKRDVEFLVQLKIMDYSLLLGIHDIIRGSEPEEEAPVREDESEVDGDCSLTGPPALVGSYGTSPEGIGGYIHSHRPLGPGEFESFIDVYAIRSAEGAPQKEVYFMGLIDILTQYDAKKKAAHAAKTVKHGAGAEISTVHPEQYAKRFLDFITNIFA

% of control [1]: 9.63%
SMILES: Cn1cc(-n2cnc3c(NCc4nc5cc(Cl)c(Cl)cc5[nH]4)nc(N4CCOCC4)nc32)cn1

% of inhibition [2]: 8%
SMILES: Cc1ccc(-c2ccc3c(ccc4sc5c(c43)NC[C@@H](C)NC5=O)n2)cn1

SMILES: CN(C)CCOc1ccc(-c2nc(-c3ccncc3)c(-c3ccc4c(c3)CC/C4=N\O)[nH]2)cc1
% of control [3]: 17%

SMILES: C=CC(=O)Nc1ccc(C(=O)Nc2[nH]nc3c2CN(C(=O)N[C@H](CN(C)C)c2ccccc2)C3(C)C)cc1
% of engagement [4]: -6.5%
